Consider 30 compounds from patent US20150272939A1, “Identification of Small Molecule Inhibitors of Jumonji AT-Rich Interactive Domain 1A (JARID1A) and 1B (JARID1B) Histone Demethylase” (Yale University, priority 2012, published 2015).

Structures can show the parent of a compound that is named as a salt.

The target of one experiment is T1, JARID1B (Homo sapiens, UniProt Q9UGL1).
T1 construct: The FLAG tagged full length JARID1B enzyme was expressed in Sf21 insect cells using FLAG-JARID1B baculoviruses; FLAG (N); made in house; host or cells: Sf21 insect cells (baculovirus)
T1 sequence (Q9UGL1 whole entry): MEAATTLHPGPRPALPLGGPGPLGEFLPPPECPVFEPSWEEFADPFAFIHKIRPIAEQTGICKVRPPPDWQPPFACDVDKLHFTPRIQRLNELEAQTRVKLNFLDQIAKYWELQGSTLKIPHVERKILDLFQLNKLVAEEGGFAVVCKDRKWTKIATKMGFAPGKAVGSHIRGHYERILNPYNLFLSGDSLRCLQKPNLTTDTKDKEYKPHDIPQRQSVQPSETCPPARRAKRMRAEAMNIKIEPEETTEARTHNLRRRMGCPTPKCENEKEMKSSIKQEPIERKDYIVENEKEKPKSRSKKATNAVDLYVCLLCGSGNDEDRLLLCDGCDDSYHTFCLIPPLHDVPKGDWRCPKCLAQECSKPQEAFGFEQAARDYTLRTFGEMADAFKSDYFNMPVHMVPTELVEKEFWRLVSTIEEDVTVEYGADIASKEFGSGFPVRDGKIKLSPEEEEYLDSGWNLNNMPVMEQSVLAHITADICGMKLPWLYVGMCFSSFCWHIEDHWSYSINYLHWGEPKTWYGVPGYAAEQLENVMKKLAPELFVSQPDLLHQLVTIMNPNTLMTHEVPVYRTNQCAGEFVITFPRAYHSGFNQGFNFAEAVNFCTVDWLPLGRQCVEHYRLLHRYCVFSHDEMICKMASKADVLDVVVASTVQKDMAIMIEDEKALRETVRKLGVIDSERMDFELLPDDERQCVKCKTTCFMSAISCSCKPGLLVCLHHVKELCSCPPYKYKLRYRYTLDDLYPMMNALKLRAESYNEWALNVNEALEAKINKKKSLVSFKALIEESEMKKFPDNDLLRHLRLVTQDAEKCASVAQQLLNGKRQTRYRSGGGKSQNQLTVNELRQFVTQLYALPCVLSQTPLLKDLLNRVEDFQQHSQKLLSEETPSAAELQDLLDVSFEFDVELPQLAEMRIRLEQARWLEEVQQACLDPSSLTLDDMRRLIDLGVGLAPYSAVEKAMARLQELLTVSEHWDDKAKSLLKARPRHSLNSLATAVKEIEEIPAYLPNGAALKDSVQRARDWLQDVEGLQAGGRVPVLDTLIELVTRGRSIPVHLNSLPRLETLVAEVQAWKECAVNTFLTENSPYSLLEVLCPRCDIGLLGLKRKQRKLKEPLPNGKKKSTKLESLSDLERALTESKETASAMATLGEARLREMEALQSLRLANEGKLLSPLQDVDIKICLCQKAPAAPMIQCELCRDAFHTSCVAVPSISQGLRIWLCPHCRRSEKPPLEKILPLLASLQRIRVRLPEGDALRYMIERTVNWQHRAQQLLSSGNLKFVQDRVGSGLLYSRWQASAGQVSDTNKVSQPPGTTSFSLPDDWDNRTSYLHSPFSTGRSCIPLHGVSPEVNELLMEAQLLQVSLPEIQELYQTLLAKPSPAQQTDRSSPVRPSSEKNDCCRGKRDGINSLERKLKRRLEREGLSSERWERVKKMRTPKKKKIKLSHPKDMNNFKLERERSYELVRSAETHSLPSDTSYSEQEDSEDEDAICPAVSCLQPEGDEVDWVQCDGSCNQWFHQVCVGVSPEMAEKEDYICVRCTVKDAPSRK
Kind of experiment: FLAG-JARID1B histone demethylase assay with AlphaScreen detection (HTS and dose response).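 On Assay Signal (percent): compound tested at 20 µM.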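 On Assay − Artifact Signal (percent): compound tested at 20 µM.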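 On all read-outs here: FLAG-tagged JARID1B at 4 nM acting on a biotinylated H3K4me3 peptide, demethylation read by AlphaScreen luminescence, with hits checked against bio-H3K4me2 without enzyme.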 Type of experiment: biochemical. Conditions: for Assay − Artifact Signal (percent): assay signal minus artifact signal; for inhibition at 20 µM / Inhibitory effect (percent): high-throughput screen, compound 20 μM, standard demethylase conditions (10 μM α-KG, 50 μM Fe (II)); for inhibition at 20 µM: read-out: Inhibitory effect (percent); for Assay Signal (percent) / Validation result of HTS active: effect of the compound in the JARID1B AlphaScreen demethylase assay: validation of HTS actives; for Assay Signal (percent): effect of compound in JARID1B AlphaScreen assay; for Validation result of HTS active: effect of the compound in the JARID1B AlphaScreen demethylase assay: total signal before subtraction of artifact signal. On the technique in general: Alpha assays give light when donor and acceptor beads are brought close together.

Experiment [1] can be described thus: AlphaScreen counterscreen against bio-H3K4me2 peptide in the absence of enzyme (artifact signal).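 On all read-outs here: counterscreen run without enzyme against bio-H3K4me2 peptide to remove false positive hits from the JARID1 demethylase AlphaScreen screen.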 Conditions: for Artifact Signal (percent): effect of the compound when incubated with bio-H3K4me2 peptide (counterscreen, no enzyme); for Artifact signal: effect of the compound when it is incubated with bio-H3K4me2 peptide: counterscreen, no enzyme.

Regarding `COCCCNCCOc1cc(C(C)C)ccc1C` [YU147245], on JARID1B, the “Assay − Artifact Signal (percent)” value is 12.07%, the inhibition at 20 µM is 30.9% and the “Assay Signal (percent)” value is given as 13.31%. Besides, the “Artifact Signal (percent)” value in experiment [1] stood at 1.25%.

On to `O=C(O)CCCSCC(=O)Nc1ccccc1` [YU146590], for which, on JARID1B, the “Assay − Artifact Signal (percent)” value stood at 10.85%, the inhibition at 20 µM is 60.2% and the “Assay Signal (percent)” value is given as 13.35%. Also, the “Artifact Signal (percent)” value in experiment [1] worked out at 2.50%.

On to `COC1=CC(=O)C(O)=CC1=CC=Cc1ccccc1` (single isomer, unassigned) [YU155007, OBTUSAQUINONE, reference compound], for which, at JARID1B, the “Assay − Artifact Signal (percent)” value was 43.75%, the inhibition at 20 µM amounted to 48.7% and the “Assay Signal (percent)” value worked out at 51.64%. Also, the “Artifact Signal (percent)” value in experiment [1] is given as 7.90%.

Turning to `Cc1cccc(NC(c2ccccn2)c2ccc3cccnc3c2O)n1` (stereo not drawn) [YU172178], on JARID1B, the “Assay − Artifact Signal (percent)” value was found to be 8.53%, the inhibition at 20 µM turned out to be 72.3% and the “Assay Signal (percent)” value is reported as 46.45%. For the same compound, the “Artifact Signal (percent)” value in experiment [1] came out at 37.93%.

With `Cc1c2c(=O)n(-c3nc4ccccc4s3)[nH]c2cc(=O)n1Cc1ccc(C(=O)O)cc1` [YU172089], on JARID1B, the “Assay − Artifact Signal (percent)” value stood at 11.36%, the inhibition at 20 µM was 92.3% and the “Assay Signal (percent)” value is on record as 22.52%. For the same compound, the “Artifact Signal (percent)” value in experiment [1] was determined as 11.16%.

Consider `OC1CCN(C(=S)NC2CC2)CC1` [YU144896], for which, at JARID1B, the inhibition at 20 µM amounted to 90.6% and the “Validation result of HTS active: effect of the compound in the JARID1B AlphaScreen demethylase assay” value (shortened to “Validation result of HTS active”) is reported as −9.38. Further, in experiment [1], the “Artifact signal: effect of the compound when it is incubated with bio-H3K4me2 peptide” value (“Artifact signal: effect of the compound” for short) is recorded as −14.49.

On to `COC(=O)NC1(C(F)(F)F)C(=O)NC(C)=C1C(=O)OC` (stereo not drawn) [YU149831], for which, on JARID1B, the “Assay − Artifact Signal (percent)” value is given as 11.45%, the inhibition at 20 µM amounted to 34% and the “Assay Signal (percent)” value is on record as 13.59%. Moreover, in experiment [1], the “Artifact Signal (percent)” value turned out to be 2.14%.

In the case of `COc1cc(NC(C)CCCN)c2ncccc2c1` (stereo not drawn) [YU033971, PRIMAQUINE DIPHOSPHATE, reference compound], on JARID1B, the “Assay − Artifact Signal (percent)” value is recorded as 50.60%, the inhibition at 20 µM was 57.5% and the “Assay Signal (percent)” value worked out at 46.49%. The “Artifact Signal (percent)” value in experiment [1] is listed as −4.11%.

For `C=CCN(CC=C)C(=S)Nc1sc(C)c(C)c1C(=O)OC` [YU153003], on JARID1B, the “Assay − Artifact Signal (percent)” value amounted to 16.80%, the inhibition at 20 µM is 65.6% and the “Assay Signal (percent)” value was 23.56%. The “Artifact Signal (percent)” value in experiment [1] is reported as 6.76%.

`Fc1ccccc1-c1nc2ncccc2o1` [YU172071]: at JARID1B, the inhibition at 20 µM was 37.3% and the “Validation result of HTS active” value was 3.80. Besides, the “Artifact signal: effect of the compound” value in experiment [1] is listed as −1.99.

In the case of `N[C@@H](Cc1ccc(O)c(O)c1)C(=O)O` [YU034332, LEVODOPA, reference compound], at JARID1B, the “Assay − Artifact Signal (percent)” value is 41.47%, the inhibition at 20 µM came to 68.8% and the “Assay Signal (percent)” value was found to be 55.74%. Further, in experiment [1], the “Artifact Signal (percent)” value is recorded as 14.27%.

With `N#CC(=Cc1ccc(O)c(O)c1)C(N)=S` (single isomer, unassigned) [YU154834, TYRPHOSTIN 47, reference compound], on JARID1B, the “Assay − Artifact Signal (percent)” value is listed as 21.75%, the inhibition at 20 µM came to 46.5% and the “Assay Signal (percent)” value was 40.23%. Besides, in experiment [1], the “Artifact Signal (percent)” value worked out at 18.48%.

For the compound `O=C(O)c1cc(O)c2c(c1)[C@@H]([C@H]1c3cc(C(=O)O)cc(O)c3C(=O)c3c(O[C@H]4O[C@H](CO)[C@@H](O)[C@H](O)[C@H]4O)cccc31)c1cccc(O[C@H]3O[C@H](CO)[C@@H](O)[C@H](O)[C@H]3O)c1C2=O` (stereo in doubt) [YU155201, SENNOSIDE A, reference compound], at JARID1B, the inhibition at 20 µM was determined as 60% and the “Validation result of HTS active” value is reported as 72.27. Besides, in experiment [1], the “Artifact signal: effect of the compound” value was determined as 68.65.

For `CC1(C)C(=O)C2(CCCCC2)C(=O)OC1c1ccc(O)cc1` (stereo not drawn) [YU150447], on JARID1B, the inhibition at 20 µM is 34.3% and the “Validation result of HTS active” value is listed as 4.56. The “Artifact signal: effect of the compound” value in experiment [1] came out at 0.80.

`CCOc1c(CNc2ccc(N3CCCC3)cc2)cccc1OC` [YU153287]: on JARID1B, the “Assay − Artifact Signal (percent)” value is listed as 11.21%, the inhibition at 20 µM came out at 54.2% and the “Assay Signal (percent)” value was found to be 28.35%. In addition, the “Artifact Signal (percent)” value in experiment [1] is 17.14%.

As to `CCCCCCCCCCCCCCCC[N+](C)(C)C` [YU034377, CETRIMONIUM BROMIDE, reference compound], on JARID1B, the inhibition at 20 µM was 94.2% and the “Validation result of HTS active” value is listed as −6.81. Also, the “Artifact signal: effect of the compound” value in experiment [1] was −6.13.

As to `CC(C)=CCc1c2c(c3occ(-c4ccc(O)c(O)c4)c(=O)c3c1O)C=CC(C)(C)O2` [YU155407, POMIFERIN, reference compound], at JARID1B, the “Inhibitory effect (percent)” value turned out to be 91.09% and the “Validation result of HTS active” value worked out at 16.14. In addition, the “Artifact signal: effect of the compound” value in experiment [1] stood at 10.52.

For `COc1cccc2c1C(=O)c1c(O)c3c(c(O)c1C2=O)C[C@@](O)(C(=O)CO)C[C@@H]3O[C@H]1C[C@H](N)[C@@H](O)[C@H](C)O1.Cl` (stereo in doubt) [YU039604, EPIRUBICIN HYDROCHLORIDE, reference compound], at JARID1B, the inhibition at 20 µM is 81.9% and the “Validation result of HTS active” value is 10.74. Further, in experiment [1], the “Artifact signal: effect of the compound” value worked out at 3.76.

For the compound `CC(C)NNC(=O)c1ccncc1` [YU034066, IPRONIAZID SULFATE, reference compound], on JARID1B, the “Assay − Artifact Signal (percent)” value was found to be 69.09%, the inhibition at 20 µM worked out at 75.9% and the “Assay Signal (percent)” value stood at 72.51%. The “Artifact Signal (percent)” value in experiment [1] is given as 3.41%.

Regarding `O=C(Nc1cnc(N2CCN(c3ccccc3Cl)CC2)c(C(=O)O)c1)c1ccc(F)cc1` [YU208247], on JARID1B, the inhibition at 20 µM was found to be 51.5% and the “Validation result of HTS active” value was found to be 7.92. Also, the “Artifact signal: effect of the compound” value in experiment [1] was 0.47.

In the case of `O=C(CCCCCCC(=O)N(c1ccccc1)c1ccccc1)N(c1ccccc1)c1ccccc1` [YU105079], on JARID1B, the inhibition at 20 µM was determined as 68.9% and the “Validation result of HTS active” value is 44.39. In addition, in experiment [1], the “Artifact signal: effect of the compound” value amounted to 43.24.

`O=C(NCCc1ccc(F)cc1)C(Cl)(Cl)Cl` [YU148680]: on JARID1B, the inhibition at 20 µM worked out at 63.9% and the “Validation result of HTS active” value is reported as −2.95. For the same compound, in experiment [1], the “Artifact signal: effect of the compound” value is −10.90.

On to `CCCCC(CC)CNC(=N)NC(=N)NCCCCCCNC(=N)NC(=N)NCC(CC)CCCC` (stereo not drawn) [YU034347, ALEXIDINE HYDROCHLORIDE, reference compound], for which, on JARID1B, the “Assay − Artifact Signal (percent)” value was 66.40%, the inhibition at 20 µM was determined as 80.6% and the “Assay Signal (percent)” value is given as 72.00%. In addition, the “Artifact Signal (percent)” value in experiment [1] was found to be 5.60%.

With `O=C1C=C2C[C@@]3(O)COc4cc(O)ccc4C3=C2C=C1O` [YU155025, BRAZILEIN, reference compound], on JARID1B, the “Assay − Artifact Signal (percent)” value is given as 9.26%, the inhibition at 20 µM was found to be 78.8% and the “Assay Signal (percent)” value came to 9.12%. The “Artifact Signal (percent)” value in experiment [1] was −0.14%.

With `c1cncc(-c2nn3c(Cn4cnc5ccccc54)nnc3s2)c1` [YU154091], at JARID1B, the “Assay − Artifact Signal (percent)” value worked out at 24.37%, the inhibition at 20 µM turned out to be 40% and the “Assay Signal (percent)” value is reported as 29.87%. Further, the “Artifact Signal (percent)” value in experiment [1] was 5.50%.

Take `N#Cc1c(NC(=O)c2cnn3cccnc23)sc2c1CCCC2` [YU152893]: at JARID1B, the inhibition at 20 µM was found to be 84.5% and the “Validation result of HTS active” value is listed as 9.21. The “Artifact signal: effect of the compound” value in experiment [1] is 1.62.

On to `Clc1ccc2nc(-c3ccccn3)c(Nc3ccc4c(c3)OCO4)n2c1` [YU173003], for which, on JARID1B, the “Assay − Artifact Signal (percent)” value came out at 37.18%, the inhibition at 20 µM was found to be 83.1% and the “Assay Signal (percent)” value is 42.73%. For the same compound, the “Artifact Signal (percent)” value in experiment [1] is 3.56%.

As to `O=C([O-])c1ccccc1-c1c2cc(Br)c(=O)cc-2oc2[c]([Hg][OH])c([O-])c(Br)cc12` [YU034068, MERBROMIN, reference compound], on JARID1B, the “Inhibitory effect (percent)” value was 99.27% and the “Validation result of HTS active” value is recorded as 3.43. Besides, the “Artifact signal: effect of the compound” value in experiment [1] was −1.81.

Turning to `O=c1c(O)cc([C@H]2Oc3cc(O)cc(O)c3C[C@H]2O)cc2c([C@H]3Oc4cc(O)cc(O)c4C[C@H]3O)cc(O)c(O)c12` [YU155003, THEAFLAVIN, reference compound], at JARID1B, the “Assay − Artifact Signal (percent)” value is on record as 13.49%, the inhibition at 20 µM was 60.4% and the “Assay Signal (percent)” value came to 60.81%. In experiment [1], the “Artifact Signal (percent)” value is recorded as 47.32%.

For the compound `NC(=O)c1ncn([C@@H]2O[C@H](CO)[C@@H](O)[C@H]2O)n1` [YU034518, RIBAVIRIN, reference compound], on JARID1B, the “Assay − Artifact Signal (percent)” value came to 23.17%, the inhibition at 20 µM worked out at 79.7% and the “Assay Signal (percent)” value is 17.20%. Moreover, the “Artifact Signal (percent)” value in experiment [1] is given as −5.97%.
